Test results taken from the NIST ThermoML archive (doi:10.1021/je060271a).

Details: 303.15 K, Liquid, Vibrating tube method

CCCCCCCC(=O)OCC(COC(=O)CCCCCCC)(COC(=O)CCCCCCC)COC(=O)CCCCCCC [pentaerythritol tetraoctanoate]
Details	mass density [kg/m3]
17535 kPa	966
17571 kPa	965.8
17601 kPa	966
17637 kPa	966
17674 kPa	966.1
17705 kPa	966
17742 kPa	966.1
17773 kPa	966.1
17810 kPa	966
17848 kPa	966.2
17879 kPa	966.2
17916 kPa	966.1
17948 kPa	966.1
17985 kPa	966.2
18024 kPa	966.2
18056 kPa	966
18095 kPa	966.2
18133 kPa	966.3
18165 kPa	966.2
18205 kPa	966.3
18238 kPa	966.4
18278 kPa	966.3
18311 kPa	966.4
18351 kPa	966.5
18391 kPa	966.5
18424 kPa	966.4
18465 kPa	966.4
18499 kPa	966.5
18540 kPa	966.5
18573 kPa	966.5
18614 kPa	966.5
18656 kPa	966.5
18690 kPa	966.5
18732 kPa	966.6
18768 kPa	966.6
18810 kPa	966.7
18851 kPa	966.7
18886 kPa	966.8
18930 kPa	966.6
18966 kPa	966.7
19009 kPa	966.9
19045 kPa	966.8
19087 kPa	966.7
19131 kPa	966.9
19168 kPa	966.8
19211 kPa	966.9
19248 kPa	967
19292 kPa	967.1
19338 kPa	966.9
19375 kPa	966.9
19420 kPa	966.9
19458 kPa	967
19502 kPa	967
19548 kPa	967.1
19586 kPa	967.1
19632 kPa	967.1
19677 kPa	967.1
19715 kPa	967.1
19762 kPa	967.2
19802 kPa	967.2
19851 kPa	967.3
19890 kPa	967.2
19938 kPa	967.3
19986 kPa	967.3
20025 kPa	967.4
20074 kPa	967.3
20115 kPa	967.4
20163 kPa	967.4
20203 kPa	967.4
20252 kPa	967.5
20302 kPa	967.4
20344 kPa	967.4
20397 kPa	967.5
20440 kPa	967.5
20489 kPa	967.5
20532 kPa	967.5
20582 kPa	967.6
20632 kPa	967.7
20674 kPa	967.7
20724 kPa	967.7
20766 kPa	967.8
20817 kPa	967.8
20872 kPa	967.7
20948 kPa	968
21030 kPa	968
21112 kPa	968
21144 kPa	968
21170 kPa	968
21194 kPa	968
21222 kPa	968
21244 kPa	967.9
21272 kPa	968
21299 kPa	968
21322 kPa	968.1
21350 kPa	968
21374 kPa	968
21402 kPa	968.1
21425 kPa	968.1
21454 kPa	968.2
21478 kPa	968.1
21506 kPa	968.1
21533 kPa	968.2
21557 kPa	968.2
21585 kPa	968.2
21610 kPa	968.2
21636 kPa	968.2
21666 kPa	968.2
21690 kPa	968.2
21721 kPa	968.4
21743 kPa	968.2
21775 kPa	968.2
21798 kPa	968.3
21827 kPa	968.3
21850 kPa	968.4
21880 kPa	968.3
21909 kPa	968.3
21933 kPa	968.4
21964 kPa	968.4
21988 kPa	968.3
22017 kPa	968.4
22049 kPa	968.5
22071 kPa	968.4
22101 kPa	968.5
22126 kPa	968.5
22158 kPa	968.6
22186 kPa	968.5
22214 kPa	968.5
22241 kPa	968.7
22266 kPa	968.6
22297 kPa	968.6
22328 kPa	968.6
22355 kPa	968.7
22385 kPa	968.7
22411 kPa	968.7
22441 kPa	968.7
22473 kPa	968.8
22499 kPa	968.6
22531 kPa	968.8
22556 kPa	968.7
22588 kPa	968.8
22614 kPa	968.8
22647 kPa	968.8
22677 kPa	968.8
22703 kPa	968.9
22736 kPa	968.8
22762 kPa	968.9
22795 kPa	968.9
22823 kPa	968.9
22855 kPa	969
22884 kPa	969
22910 kPa	968.9
22944 kPa	968.9
22976 kPa	969
23001 kPa	969
23032 kPa	968.9
23066 kPa	969.2
23092 kPa	969
23125 kPa	969.1
23153 kPa	968.9
23185 kPa	969.2
23220 kPa	969.1
23246 kPa	969.2
23276 kPa	969.1
23312 kPa	969.2
23339 kPa	969.2
23371 kPa	969.2
23405 kPa	969.2
23434 kPa	969.3
23465 kPa	969.3
23500 kPa	969.2
23527 kPa	969.3
23561 kPa	969.3
23590 kPa	969.3
23626 kPa	969.4
23656 kPa	969.3
23690 kPa	969.4
23721 kPa	969.3
23753 kPa	969.5
23781 kPa	969.4
23817 kPa	969.5
23853 kPa	969.5
23880 kPa	969.5
23917 kPa	969.4
23950 kPa	969.5
23980 kPa	969.6
24016 kPa	969.5
24045 kPa	969.7
24080 kPa	969.5
24110 kPa	969.7
24146 kPa	969.6
24184 kPa	969.6
24212 kPa	969.6
24254 kPa	969.8
24280 kPa	969.7
24317 kPa	969.7
24348 kPa	969.8
24384 kPa	969.8
24420 kPa	969.7
24450 kPa	969.8
24488 kPa	969.9
24520 kPa	969.9
24557 kPa	969.8
24589 kPa	969.8
24627 kPa	969.8
24658 kPa	969.9
24697 kPa	969.9
24728 kPa	969.8
24766 kPa	970
24804 kPa	969.9
24836 kPa	969.9
24874 kPa	970.1
24906 kPa	970.1
24945 kPa	970.2
24978 kPa	970.1
25016 kPa	970.1
25048 kPa	970.2
25087 kPa	970.1
25126 kPa	970.1
25159 kPa	970.1
25199 kPa	970.2
25232 kPa	970.1
25272 kPa	970.2
25310 kPa	970.3
25343 kPa	970.2
25382 kPa	970.2
25416 kPa	970.2
25457 kPa	970.3
25491 kPa	970.4
25532 kPa	970.3
25575 kPa	970.3
25611 kPa	970.5
25653 kPa	970.3
25689 kPa	970.7
25726 kPa	970.3
25768 kPa	970.5
25804 kPa	970.5
25845 kPa	970.5
25882 kPa	970.6
25929 kPa	970.6
25969 kPa	970.5
26006 kPa	970.5
26051 kPa	970.7
26084 kPa	970.7
26119 kPa	970.7
26164 kPa	970.7
26203 kPa	970.7
26241 kPa	970.8
26285 kPa	970.8
26318 kPa	970.7
26384 kPa	970.8
26413 kPa	970.8
26446 kPa	970.8
26474 kPa	970.9
26520 kPa	970.9
26558 kPa	971
26597 kPa	971
26642 kPa	970.9
26681 kPa	971.1
26720 kPa	971
26767 kPa	971.1
26806 kPa	971.1
26846 kPa	971.1
26893 kPa	971.1
26934 kPa	971.2
26974 kPa	971
27015 kPa	971.2
27064 kPa	971.2
27104 kPa	971.2
27153 kPa	971.2
27193 kPa	971.2
27234 kPa	971.3
27275 kPa	971.4
27317 kPa	971.3
27366 kPa	971.3
27407 kPa	971.4
27450 kPa	971.4
27500 kPa	971.4
27543 kPa	971.4
27585 kPa	971.6
27636 kPa	971.4
27678 kPa	971.4
27720 kPa	971.6
27763 kPa	971.5
27814 kPa	971.6
27856 kPa	971.5
27907 kPa	971.5
27950 kPa	971.7
27993 kPa	971.7
28045 kPa	971.7
28089 kPa	971.7
28134 kPa	971.8
28178 kPa	971.9
28230 kPa	971.9
28273 kPa	971.8
28325 kPa	972
28369 kPa	971.9
